Laboratory results as given in patent US20040137500A1, “Novel polypeptide” (Pfizer Inc, priority 2000, published 2004).

Tested on: PFI-020
Test: FLIPR cell-based assay for agonist activation of PFI-020
Design: species or system human
Conditions: 10 μM; PFI-020-transfected 293 cells (HEK 293 expressing mouse Gα15); Fluo3 FLIPR
Experimental: Fluorescence Imaging Plate Reader (FLIPR®) technology was employed as a means to detect activation of PFI-020 by agonists in a cell-based assay.
5×10^6 Human Embryonic Kidney (HEK) 293 cells expressing the mouse Gα15 gene (from here on called '293 cells′), were transiently transfected with 7.5 μg of PFI-020 (contained within the pcDNA4HIS-max-TOPO (Invitrogen) plasmid) vector, or vector alone, using Lipofectamine Plus® reagent (Gibco BRL) as per the manufacturer's protocol. The plasmid pcDNA4HIS-max-TOPO was used as it contains elements that up-regulate the level of gene transcription over standard pcDNA3.1 vectors. 24 hrs post-transfection, the cells were detached from the flask using Trypsin/EDTA solution (LTI) and seeded into a black sided, poly-D-lysine-treated, 96-well plate (Becton Dickinson) at 5×10^4 cells/well density. […] The FLIPR® processing involved reading the fluorescence for all samples for 2 minutes; during this time the fluorescence baseline was determined for the first 10 seconds. The desired amount of compound was then automatically transferred to the wells and the fluorescence was continuously monitored for the remainder of the time. […]
FIGS. 3, 4, 5 and 6 depict the action of various purinoceptor compounds at a concentration of 10 μM on PFI-020-transfected 293 cells, showing fluorescence intensity versus time (in seconds). […]

Row | SMILES | activation of PFI-020 (fluorescence intensity versus time)
1 | Nc1nc(Cl)nc2c1ncn2[C@@H]1O[C@H](COP(=O)([O-])OP(=O)([O-])OP(=O)([O-])[O-])[C@@H](O)[C@H]1O.[Na+].[Na+].[Na+].[Na+] [2-chloro-ATP, 2-chloroadenosine triphosphate tetrasodium] | activated
2 | O=c1ccn([C@@H]2O[C@H](COP(=O)(O)OP(=O)(O)OP(=O)(O)O)[C@@H](O)[C@H]2O)c(=O)[nH]1 [UTP, Uridine triphosphate] | activated
